The record followed here is patent US12214092B2, “Systems and methods for treating biological fluids” (Cerus Corporation, priority 2017, dated 2025).

In the data set the test system is platelets.

Like-named read-outs stand apart in the source and are kept apart here.

Protocol: Platelets collected in PAS/Plasma (65% PAS III/35% Plasma) were pooled and split into three 285 mL units for the study. Amotosalen (S-59) was added to a concentration of 150 μM, and the units were illuminated one time (˜3.6 J/cm^2 total dose), two times (˜7.2 J/cm^2 total dose), or three times (˜10.8 J/cm^2 total dose) with the narrow band 340 nm LEDs or 365 nm LEDs using the device of Example 1, or with the INT-100 device.
Additionally, various measures of platelet quality were evaluated by standard methodologies immediately after three times UVA illumination (˜10.8 J/cm^2), to identify potential differences among the light sources.

Turning to `Cc1oc2c(C)c3oc(=O)cc(C)c3cc2c1COCCN` [S-59, 3-(2-aminoethoxymethyl)-2,5,9-trimethylfuro[3,2-g]chromen-7-one], where the note is “340 nm”, the ATP is reported as 4.0 mmol/×10^8, the Lysis is 2.36% and the “pH (37° C.)” value is on record as 6.61. Moreover, under “365 nm”, the ATP is recorded as 4.8 mmol/×10^8, the Lysis turned out to be 1.72% and the “pH (37° C.)” value is reported as 6.74. Besides, where the note is “INT 100”, the ATP was 4.1 mmol/×10^8, the Lysis worked out at 2.25% and the “pH (37° C.)” value is listed as 6.60.
